Source: US4317768A, “Dihydropyridine derivatives as stabilizers for vinyl chloride polymers” (priority 1977, dated 1982)

How the values were obtained:
[1] = Antioxidant power on a polyvinyl chloride resin, Metrastat oven, 210° C.
Method: (§1) By direct comparison, on a polyvinyl chloride resin, of the antioxidant power of Compound 1 of the invention and that of an antioxidant known as one of the most valuable and frequently used in polyvinyl chloride, namely 2,6-diterbutyl-4-methyl-phenol.
(§2) The antioxidant power of Compound 1 was compared to that of 2,6-diterbutyl-4-methyl-phenol (Compound 2) by using the following resin:
The same trials were carried out in a Metrastat oven at 210° C.

[2] = Antioxidant power on a polyvinyl chloride resin, GARDNER method, 185° C.
[3] = as above; remark: listed apart in the source
Method: as §1, §2
The study was carried out according to the GARDNER method, the samples being removed from an oven at 185° C. every 10 minutes over a period of 80 minutes.
The signs + and - have the same meanings as in the previous table and > 2 means that the coloration lies between 2 and 2+.

[4] = Polarographic study of the oxidation potential; assay type: physicochemical; settings: acetonitrile, 0.1 M lithium perchlorate, vitrous carbon electrode, calomel reference
Source text: By a polarographic study of their oxidation potential, compared to well-known antioxidants such as 2,6-diterbutyl-4-methyl-phenol, 2-terbutyl-4-methoxy-phenol, 4-methoxy-phenol and hydroquinone.
Reference electrode: Calomel electrode containing a saturated solution of anhydrous lithium perchlorate as bridge liquid.
Working electrode: Vitrous carbon rotating electrode (2,500 r.p.m.)
Counter-electrode: Platinum electrode
Acetonitrile containing less than 0.1% of water and presenting no polarographic waves between -2.5 V and +2.5 V.
Anhydrous lithium perchlorate containing less than 1% of water.
A 0.1 M solution of lithium perchlorate in acetonitrile, treated and preserved on a 4 A molecular sieve.
Amplitude of exploration: 0 to 2 V
Speed of exploration: 10 mV/second
Sensitivity: 1.25 μA to 50 μA
Mean concentration: about 0.3×10^-3 mol/liter
Between each measurement, the vitrous carbon electrode and the platinum electrode were carefully cleaned with Joseph paper.

Compound: Cc1cc(C(C)(C)C)c(O)c(C(C)(C)C)c1 [Compound Z, 2,6-diterbutyl-4-methyl-phenol, reference compound]
- time of burning (B) ([1]; 0.05 part): 38 '
- coloration, GARDNER scale ([1]; 0.05 part, 10 to 20 min): 2
- coloration, GARDNER scale ([1]; 0.05 part, 30 to 35 min): 10
- coloration, GARDNER scale ([1]; 0.05 part, 35 to 40 min): > 10
- time of burning (B) ([1]; 0.1 part): 39 '
- coloration, GARDNER scale ([1]; 0.1 part, 10 to 20 min): 2
- coloration, GARDNER scale ([1]; 0.1 part, 30 to 35 min): 11
- coloration, GARDNER scale ([1]; 0.1 part, 35 to 40 min): > 11
- time of burning (B) ([1]; 0.2 part): 39 '
- coloration, GARDNER scale ([1]; 0.2 part, 10 to 20 min): 2
- coloration, GARDNER scale ([1]; 0.2 part, 30 to 35 min): 11
- coloration, GARDNER scale ([1]; 0.2 part, 35 to 40 min): > 11
- time of burning (B) ([1]; 0.3 part): 39 '
- coloration, GARDNER scale ([1]; 0.3 part, 0 to 10 min): < 1
- coloration, GARDNER scale ([1]; 0.3 part, 25 to 30 min): 3
- coloration, GARDNER scale ([1]; 0.3 part, 30 to 35 min): 9
- coloration, GARDNER scale ([1]; 0.3 part, 35 to 40 min): < 10
- time of burning (B) ([1]; 0.4 part): 38 '
- coloration, GARDNER scale ([1]; 0.4 part, 10 to 20 min): 2
- coloration, GARDNER scale ([1]; 0.4 part, 20 to 25 min): 3
- coloration, GARDNER scale ([1]; 0.4 part, 30 to 35 min): 10
- coloration, GARDNER scale ([1]; 0.4 part, 35 to 40 min): > 10
- time of burning (B) ([1]; 0.5 part): 38 '
- coloration, GARDNER scale ([1]; 0.5 part, 10 to 20 min): 2
- coloration, GARDNER scale ([1]; 0.5 part, 20 to 25 min): 3
- time of burning (B) ([1]; 1.0 part): 38 '
- coloration, GARDNER scale ([1]; 1.0 part, 10 to 20 min): 2
- coloration, GARDNER scale ([1]; 1.0 part, 25 to 30 min): 5
- coloration, GARDNER scale ([1]; 1.0 part, 30 to 35 min): 11
- coloration, GARDNER scale ([1]; 1.0 part, 35 to 40 min): > 11
- colour of sheets, in words ([1]; from the time zero): pink-coloured sheets
- antioxidant power, Compound 1 vs Compound Z, in words [2]: no concentration in Compound Z gives the best results obtained with Compound 1
- coloration, GARDNER scale ([3]; 0.05 part, 0 min): > 1
- coloration, GARDNER scale ([3]; 0.05 part, 40 min): > 6
- coloration, GARDNER scale ([3]; 0.05 part, 50 min): 7
- coloration, GARDNER scale ([3]; 0.05 part, 60 min): 7
- coloration, GARDNER scale ([3]; 0.05 part, 70 min): 8
- coloration, GARDNER scale ([3]; 0.05 part, 80 min): Burnt
- coloration, GARDNER scale ([3]; 0.1 part, 0 min): > 1
- coloration, GARDNER scale ([3]; 0.1 part, 30 min): > 5
- coloration, GARDNER scale ([3]; 0.1 part, 40 min): > 6
- coloration, GARDNER scale ([3]; 0.1 part, 50 min): 7
- coloration, GARDNER scale ([3]; 0.1 part, 60 min): 7
- coloration, GARDNER scale ([3]; 0.1 part, 70 min): 8
- coloration, GARDNER scale ([3]; 0.2 part, 0 min): > 1
- coloration, GARDNER scale ([3]; 0.2 part, 40 min): > 6
- coloration, GARDNER scale ([3]; 0.2 part, 50 min): 7
- coloration, GARDNER scale ([3]; 0.2 part, 60 min): 7
- coloration, GARDNER scale ([3]; 0.2 part, 70 min): 8
- coloration, GARDNER scale ([3]; 0.3 part, 20 min): > 2
- coloration, GARDNER scale ([3]; 0.3 part, 30 min): 6
- coloration, GARDNER scale ([3]; 0.3 part, 40 min): 7
- coloration, GARDNER scale ([3]; 0.3 part, 50 min): 8
- coloration, GARDNER scale ([3]; 0.3 part, 60 min): 8
- coloration, GARDNER scale ([3]; 0.4 part, 20 min): 3
- coloration, GARDNER scale ([3]; 0.4 part, 30 min): > 6
- coloration, GARDNER scale ([3]; 0.4 part, 50 min): 9
- coloration, GARDNER scale ([3]; 0.4 part, 60 min): 9
- coloration, GARDNER scale ([3]; 0.4 part, 70 min): 9
- coloration, GARDNER scale ([3]; 0.5 part, 20 min): 3
- coloration, GARDNER scale ([3]; 0.5 part, 30 min): > 6
- coloration, GARDNER scale ([3]; 0.5 part, 40 min): > 7
- coloration, GARDNER scale ([3]; 0.5 part, 60 min): 8
- coloration, GARDNER scale ([3]; 0.5 part, 70 min): 8
- coloration, GARDNER scale ([3]; 1.0 part, 20 min): > 3
- coloration, GARDNER scale ([3]; 1.0 part, 30 min): 8
- coloration, GARDNER scale ([3]; 1.0 part, 40 min): 8
- coloration, GARDNER scale ([3]; 1.0 part, 50 min): 8
- coloration, GARDNER scale ([3]; 1.0 part, 60 min): 9
- coloration, GARDNER scale ([3]; 1.0 part, 70 min): 9
- Oxidation potential [4]: 1.11 ± 0.02 volts
